Source: PubChem BioAssay (NCI)
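At the GI50, growth is halved. At the TGI there is no net growth.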

Experiments:
Assay in all cases: NCI tumour cell line growth inhibition, 384-well format
[1] = test system: 786-0 renal
[2] = test system: A498 renal
[3] = test system: A549 NSCLC
[4] = test system: ACHN renal
[5] = test system: BT-549 breast
[6] = test system: CAKI-1 renal
[7] = test system: CCRF-CEM leukemia
[8] = test system: COLO 205 colon
[9] = test system: DU-145 prostate
[10] = test system: EKVX NSCLC
[11] = test system: HCC-2998 colon
[12] = test system: HCT-15 colon
[13] = test system: HL-60(TB) leukemia
[14] = test system: HOP-62 NSCLC
[15] = test system: HOP-92 NSCLC
[16] = test system: HS 578T breast
[17] = test system: HT29 colon
[18] = test system: IGROV1 ovarian
[19] = test system: K-562 leukemia
[20] = test system: KM12 colon
[21] = test system: LOX IMVI melanoma
[22] = test system: M14 melanoma
[23] = test system: MALME-3M melanoma
[24] = test system: MCF7 breast
[25] = test system: MDA-MB-231 breast
[26] = test system: MDA-MB-435 melanoma
[27] = test system: MDA-MB-468 breast
[28] = test system: MOLT-4 leukemia
[29] = test system: NCI-H226 lung

SMILES: COCCOC(=O)C1=C(C)NC2=C(C(=O)CC(c3ccccc3OC)C2)C1c1cccc(O)c1 (stereo not drawn)
- GI50 [1]: 5.49 µM
- TGI [1]: 24.2 µM
- GI50 [2]: 10.6 µM
- TGI [2]: 29.6 µM
- GI50 [3]: 6.88 µM
- TGI [3]: 31 µM
- GI50 [4]: 17.3 µM
- TGI [4]: 55.6 µM
- GI50 [5]: 2.55 µM
- TGI [5]: 14.9 µM
- GI50 [6]: 4.44 µM
- TGI [6]: 27.9 µM
- GI50 [7]: 5.99 µM
- TGI [7]: 19.4 µM
- GI50 [8]: 7.74 µM
- TGI [8]: 24.6 µM
- GI50 [9]: 18.5 µM
- TGI [9]: 65 µM
- GI50 [10]: 17.6 µM
- TGI [10]: 62.2 µM
- GI50 [11]: 3.67 µM
- TGI [11]: 15.2 µM
- GI50 [12]: 11.6 µM
- TGI [12]: 27 µM
- GI50 [13]: 1.27 µM
- TGI [13]: 3.17 µM
- GI50 [14]: 5.19 µM
- TGI [14]: 22.1 µM
- GI50 [15]: 4.02 µM
- TGI [15]: 21 µM
- GI50 [16]: 1.93 µM
- TGI [16]: 8.82 µM
- GI50 [17]: 6.75 µM
- TGI [17]: 22.2 µM
- GI50 [18]: 8.28 µM
- TGI [18]: 24.7 µM
- GI50 [19]: 5.62 µM
- TGI [19]: 19.6 µM
- GI50 [20]: 9.21 µM
- TGI [20]: 26.2 µM
- GI50 [21]: 3.75 µM
- TGI [21]: 13.6 µM
- GI50 [22]: 11 µM
- TGI [22]: 34.9 µM
- GI50 [23]: 4.14 µM
- TGI [23]: 23.2 µM
- GI50 [24]: 2.68 µM
- TGI [24]: 20.7 µM
- GI50 [25]: 4.79 µM
- TGI [25]: 60.4 µM
- GI50 [26]: 9.55 µM
- TGI [26]: 24.8 µM
- GI50 [27]: 2.5 µM
- TGI [27]: 7.67 µM
- GI50 [28]: 7.21 µM
- TGI [28]: 20.7 µM
- GI50 [29]: 4.91 µM
- TGI [29]: 27.6 µM
